Data on eight compounds can be found in PMC6522510 (Nature Communications, 2019).

Like-named read-outs stand apart in the source and are kept apart here.

Common to all, as to parameters: species or system AML cell lines (8); Primary HTS, single concentration about 10 uM, Cell Titer Glo viability; log10 luminescence, per cent inhibition relative to cycloheximide control
Common to all, as to details: 72 h, relative to cycloheximide control, log10 luminescence, inhibitor

The test system of experiment [1] is CHRF288-11.
The test system of experiment [2] is MV4-11.
The test system of experiment [3] is ML-2.
Experiment [4] concerns CMK.
For experiment [5], the system named is M07e.
Experiment [6] concerns CMS.
Experiment [7] has as its system U937.
In experiment [8] the test system is MOLM-13.

With `Cn1cc(C2=C(c3cn(C)c4ccc(N)cc34)C(=O)NC2=O)c2ccccc21` [SJ000580967-1], in experiment [1], the CHRF288-11 %inh is given as 11.3%. Further, the MV4-11 %inh in experiment [2] was 0.6883%. In experiment [3], the ML-2 %inh worked out at 0.6002%. For the same compound, the CMK %inh in experiment [4] was 43.44%. Further, the M07e %inh in experiment [5] was determined as 2.999%. Also, in experiment [6], the CMS %inh was determined as 2.341%. Further, the U937 %inh in experiment [7] amounted to 7.089%. Moreover, in experiment [8], the MOLM-13 %inh is given as 8.368%.

Consider `CO[C@@]1(NC(=O)Cc2cccs2)C(=O)N2C(C(=O)O)=C(COC(N)=O)CS[C@@H]21` [SJ000285599-4, CEFOXITIN SODIUM], for which the CHRF288-11 %inh in experiment [1] is recorded as -4.487%. Also, the MV4-11 %inh in experiment [2] is -5.193%. In addition, the ML-2 %inh in experiment [3] was -2.877%. In addition, the CMK %inh in experiment [4] is given as 1.325%. The M07e %inh in experiment [5] is on record as -3.67%. In addition, the CMS %inh in experiment [6] is recorded as -1.051%. The U937 %inh in experiment [7] was -1.811%. For the same compound, in experiment [8], the MOLM-13 %inh is given as 3.83%.

As for `COc1cc(C=NNc2ncnc3c2cnn3Cc2ccccc2)ccc1O` [SJ000573058-1, T237/25/8], in experiment [1], the CHRF288-11 %inh was -7.429%. In addition, in experiment [2], the MV4-11 %inh is -3.195%. The ML-2 %inh in experiment [3] is on record as 0.3051%. Further, the CMK %inh in experiment [4] is recorded as -3.542%. For the same compound, in experiment [5], the M07e %inh is -2.447%. Also, the CMS %inh in experiment [6] was -1.754%. Further, the U937 %inh in experiment [7] is on record as -2.319%. For the same compound, the MOLM-13 %inh in experiment [8] is -1.629%.

Consider `C/C=C(/C(=C/C)c1ccc(O)cc1)c1ccc(O)cc1` [SJ000285735-4, DIENESTROL], for which, in experiment [1] (CHRF288-11 %inh, 10 µM), the CHRF288-11 %inh is listed as -2.974%. Further, the MV4-11 %inh in experiment [2] (MV4-11 %inh, 10 µM) was -1.794%. Also, the ML-2 %inh in experiment [3] (ML-2 %inh, 10 µM) worked out at 0.7684%. Besides, in experiment [4] (CMK %inh, 10 µM), the CMK %inh is given as 4.084%. Moreover, in experiment [5] (M07e %inh, 10 µM), the M07e %inh was -0.9445%. In addition, the CMS %inh in experiment [6] (CMS %inh, 10 µM) is -3.971%. Moreover, the U937 %inh in experiment [7] (U937 %inh, 10 µM) came to 2.437%. Moreover, the MOLM-13 %inh in experiment [8] (MOLM-13 %inh, 10 µM) was determined as 3.801%.

With `Nc1nc(=O)n([C@@H]2CS[C@H](CO)O2)cc1F` [SJ000556750-1, EMTRICITABINE], in experiment [1], the CHRF288-11 %inh came out at 2.371%. The MV4-11 %inh in experiment [2] is -2.268%. Also, the ML-2 %inh in experiment [3] is on record as 2.01%. The CMK %inh in experiment [4] is on record as 2.775%. Also, the M07e %inh in experiment [5] is reported as -0.1929%. Further, the CMS %inh in experiment [6] is recorded as -3.992%. In addition, the U937 %inh in experiment [7] is -2.394%. Moreover, the MOLM-13 %inh in experiment [8] was found to be 20.59%.

As to `CN(C)CC#Cc1cccc(C(=O)c2cnn(-c3ccc(F)cc3)c2N)c1` [SJ000581036-1], the CHRF288-11 %inh in experiment [1] is given as -3.732%. Also, in experiment [2], the MV4-11 %inh stood at 0.9409%. In experiment [3], the ML-2 %inh is 0.4348%. The CMK %inh in experiment [4] is listed as 1.135%. Further, the M07e %inh in experiment [5] was found to be 2.548%. Moreover, the CMS %inh in experiment [6] was 3.514%. Besides, the U937 %inh in experiment [7] is on record as 6.781%. The MOLM-13 %inh in experiment [8] is 29.95%.

For `COc1cccc(-n2ncc3c(N/N=C/c4ccncc4)ncnc32)c1` [SJ000573037-1, U25132/28/11], the CHRF288-11 %inh in experiment [1] is listed as 6.081%. The MV4-11 %inh in experiment [2] came out at 1.553%. In experiment [3], the ML-2 %inh amounted to 0.6096%. Besides, the CMK %inh in experiment [4] is -6.6%. For the same compound, in experiment [5], the M07e %inh is -4.147%. In experiment [6], the CMS %inh was found to be 4.136%. For the same compound, in experiment [7], the U937 %inh was -2.89%. For the same compound, in experiment [8], the MOLM-13 %inh is -2.08%.

As for `CO/N=C1\CN(c2nc3c(cc2F)c(=O)c(C(=O)O)cn3C2CC2)CC1CN` (stereo not shown) [SJ000556758-1, GEMIFLOXACIN MESILATE], the CHRF288-11 %inh in experiment [1] was found to be 4.811%. Besides, the MV4-11 %inh in experiment [2] turned out to be 8.469%. Moreover, in experiment [3], the ML-2 %inh amounted to 0.2536%. Also, in experiment [4], the CMK %inh came out at 10.74%. Moreover, the M07e %inh in experiment [5] is on record as 5.532%. Further, the CMS %inh in experiment [6] was 4.675%. The U937 %inh in experiment [7] was 9.491%. In experiment [8], the MOLM-13 %inh was 8.66%.
